US20260241041A1, “FLUORESCENCE IMAGING REAGENT FOR LIPID DROPLETS IN TISSUES AND CELLS” (NATIONAL UNIVERSITY CORPORATION GUNMA UNIVERSITY, priority 2021, published 2026)

Legend:
[1] = tested on: lipid droplets in HeLa cells; test: Fluorescence imaging of lipid droplets in cultured cells (luminescence intensity vs Lipi-Blue); type: cell-based; settings: 400 μM oleic acid 48 h, reagent 500 nM, 60 min, excitation 430 nm, compared with Lipi-Blue
Experimental: (§1) Fluorescence intensity imaging and fluorescence lifetime imaging were carried out using a confocal laser microscope (IX-73; manufactured by Olympus Corporation) equipped with a confocal scanner (DCS-120; Becker & Hickl).
Imaging of lipid droplets in cultured cells was studied by a comparative experiment on the performance between DBC30, DBC30-Bu, and DBC30-Ph, and a commercially available blue imaging reagent (Lipi-Blue). The investigated items were the luminescence intensity and the photostability.
Each fluorescent reagent was added to a final concentration of 500 nM to HeLa cells cultured for 48 hours in the presence of 400 μM oleic acid. Culture was then performed for 60 minutes, and the cultured cells were irradiated with an excitation light (DBC30, DBC30-Bu, DBC30-Ph, Lipi-Blue: 430 nm) required for the imaging, followed by observation using a confocal laser microscope.

[2] = Measurement of fluorescence lifetime in solvents; type: physicochemical
Experimental: The fluorescence lifetime (τf) of the compound in each solvent was measured using a compact fluorescence lifetime measurement apparatus (Quntaurus-Tau, manufactured by Hamamatsu Photonics K. K.).
The compounds of the present invention synthesized in the above Synthesis Examples (FIG. 4; DBC30, DBC30-Bu, and DBC30-Ph) contain an 8-dibutylaminocoumarine skeleton. […] The maximum absorption wavelength was found at 401 to 412 nm, and the maximum fluorescence wavelength was found at 467 to 484 nm, which corresponds to blue fluorescence. […] The fluorescence quantum yield was not less than 0.9 in any of the solvents.

[3] = tested on: lipid droplets in HeLa cells; test: Co-staining with BODIPY 493/503 for lipid droplet selectivity; type: cell-based; settings: 400 μM oleic acid, 100 nM, 30 min, excitation 430 nm, observation 460-500 nm
Experimental: In order to clarify the lipid droplet selectivities of DBC30, DBC30-Bu, and DBC30-Ph, co-staining experiments were carried out with BODIPY 493/503, which is a commercially available green fluorescent lipid droplet reagent (FIGS. 8 to 10). Each fluorescent reagent was added to a final concentration of 100 nM to HeLa cells cultured for 48 hours in the presence of 400 μM oleic acid. Culture was then performed for 30 minutes, and the cultured cells were irradiated with an excitation light required for the imaging, followed by observation. For DBC30, DBC30-Bu and DBC30-Ph, the excitation wavelength was 430 nm, and the observation wavelength was 460-500 nm. For BODIPY 493/503, the excitation wavelength was 488 nm, and the observation wavelength was 510 to 560 nm.

[4] = Measurement of maximum absorption wavelength, maximum fluorescence wavelength and fluorescence quantum yield in solvents; type: physicochemical
Experimental: Using a luminescent quantum yield measurement apparatus ([…]-01, manufactured by Hamamatsu Photonics K. K.), the maximum absorption wavelength (λabs/nm), the maximum fluorescence wavelength (λflu/nm), and the fluorescence quantum yield (Φf) of the compound in each solvent were measured. […] The fluorescence quantum yield was not less than 0.9 in any of the solvents.

[5] = Solubility / precipitation in physiological saline; type: physicochemical
Experimental: (§2) Fluorescence imaging of lipid droplets in a tissue, and of an adipose tissue, using DBC30, DBC30-Bu, or DBC30-Ph is described below. Since the DBC30 series has remarkably low solubility in water (physiological saline), they cannot be easily directly dissolved. […] Therefore, they cannot be administered to mice. In view of this, the 5 mM stock solution was added (at a volume ratio of 10%) to physiological saline supplemented with 10% bovine serum albumin. […] Regarding administration of MNs-NB, a stock solution in DMSO is directly administered to mice. Since administration of DMSO may cause death of mice from shock, the administration method in the present invention is thought to be a safer method. Here, 100 to 200 μL of 500 μM solution (50 to 100 nmol) was administered to the tail vein of mice under anesthesia, and a fluorescence imaging experiment was carried out. In the present experiment, a microscope capable of acquiring fluorescence lifetime images as well as fluorescence intensity images (FLIM: fluorescence lifetime imaging microscope) was used.

[6] = tested on: adipose tissues and lipid droplets; test: Fluorescence imaging of adipose tissues, skeletal muscle and kidney of a mouse; type: in vivo, mouse (BALB/cAJcl); settings: 50 nmol
Experimental: as §1, §2
In an individual, various adipose tissues and lipid droplets are present. Their imaging was carried out using DBC30. […]

[7] = tested on: lipid droplets; test: Multicolor imaging with Mito Tracker Green and Lyso Tracker Red; type: cell-based; settings: co-staining with Mito Tracker Green and Lyso Tracker Red
From the text: Mito Tracker Green (excitation wavelength, 488 nm; observation wavelength, 510 to 560 nm), which is a green fluorescent reagent showing accumulation in mitochondria, and Lyso Tracker Red (excitation wavelength, 570 nm; observation wavelength, >590 nm), which is a red fluorescent reagent showing accumulation in lysosomes, were used.

[8] = tested on: lipid droplets in the liver; test: Fluorescence intensity and lifetime imaging of liver lipid droplets in normal and fatty-liver model mice; type: in vivo, mice (BALB/cAJcl); settings: 50 nmol, tail vein
Experimental: as §1
as §2, with “used. […]” for “used.”

[9] = tested on: lipid droplets in HeLa cells; test: Photostability in cells under repeated confocal scanning; type: cell-based; settings: 400 μM oleic acid, 100 nM, 500 times of scanning, excitation 430 nm
Experimental: Photostability is an important factor in long-term measurement for, for example, tracing the processes of formation, fusion, and degradation of lipid droplets. Each fluorescent reagent was added to a final concentration of 100 nM (DBC30, C6-OBu, or BODIPY493/503) or 2 μM (Lipi-Blue) to HeLa cells cultured for 48 hours in the presence of 400 μM oleic acid. Culture was then performed for 30 minutes, and the cultured cells were irradiated with an excitation light (DBC30, DBC30-Bu, Lipi-Blue: 430 nm; BODIPY 493/503: 488 nm) required for the imaging, followed by acquisition of imaging images using a confocal laser microscope. The photostability was evaluated by 500 times of scanning in which a set of 50 times of scanning was repeated.

[10] = green fluorescence; cited from earlier work
[11] = 5 mM DMSO stock added at 10% to physiological saline supplemented with 10% bovine serum albumin
[12] = 5 mM DMSO stock added at volume ratio of 10% to physiological saline

Row | SMILES | fluorescence intensity in cells [1] | τf (fluorescence lifetime) ([2]; in Bu2O (dibutyl ether)) | τf (fluorescence lifetime) ([2]; in MeCN (acetonitrile)) | lipid droplet selectivity (co-staining with BODIPY 493/503) [3] | λabs max ([4]; in Bu2O (dibutyl ether)) | λflu max ([4]; in Bu2O (dibutyl ether)) | φl (fluorescence quantum yield) ([4]; in Bu2O (dibutyl ether)) | λabs max ([4]; in MeCN (acetonitrile)) | λflu max ([4]; in MeCN (acetonitrile)) | φl (fluorescence quantum yield) ([4]; in MeCN (acetonitrile)) | precipitation [5, 11] | precipitation [5, 12] | imaging of lipid droplets in kidney [6] | imaging of subcutaneous adipose tissue, abdominal adipose tissue, skeletal muscle and kidney [6] | use in multicolor imaging [7] | imaging of lipid droplets in liver ([8]; fatty-liver model mouse (Week 2)) | imaging of lipid droplets in liver ([8]; mouse fed with a normal diet) | photostability in cells [9] | fluorescence wavelength [10]
1 | CCCCN(CCCC)c1ccc2cc(-c3nc4ccccc4n3-c3ccccc3)c(=O)oc2c1 [DBC30-Ph] | higher fluorescence intensities than the HeLa cells to which Lipi-Blue was added | 2.29 ns | 2.51 ns | found to have lipid droplet selectivity | 399 nm | 467 nm | 0.92 | 412 nm | 484 nm | 0.92 | could be suppressed | precipitation of DBC30, DBC30-Bu, or DBC30-Ph occurs | – | – | – | – | – | – | –
2 | CCCCN(CCCC)c1ccc2cc(-c3nc4ccccc4n3C)c(=O)oc2c1 [DBC30] | higher fluorescence intensities than the HeLa cells to which Lipi-Blue was added | 2.29 ns | 2.55 ns | found to have lipid droplet selectivity | 404 nm | 468 nm | 0.93 | 410 nm | 484 nm | 0.90 | could be suppressed | precipitation of DBC30, DBC30-Bu, or DBC30-Ph occurs | small lipid droplets distributed in tubular cells could be imaged | Fluorescence derived from DBC30 was found from sites where lipid is accumulated | can be used for multicolor imaging | large lipid droplets were imaged over the entire liver surface | small lipid droplets could be found in hepatocytes | higher photostability compared to the conventional reagents such as Lipi-Blue | –
3 | CC1=CC(C)=[N+]2C1=C(C)c1c(C)cc(C)n1[B-]2(F)F [BODIPY 493/503] | – | – | – | – | – | – | – | – | – | – | – | – | – | – | – | – | – | – | about 500 nm
